Experimental findings from publication PMC10606064, “2-Aminothiazole-Flavonoid Hybrid Derivatives Binding to Tau Protein and Responsible for Antitumor Activity in Glioblastoma” (International Journal of Molecular Sciences, 2023) are described below.

Where only a bound is given, the exact number is not on record here.

For test [1], the system named is T98G glioblastoma cells. The test is described as follows: MTT cell viability assay, T98G. It is filed as cell-based. The conditions noted are these: Homo sapiens, 72 h, mean ± SEM, read-out: IC50 (metabolic activity). In a few lines: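 Cells seeded at 15,000/mL, cultured 24 h, then exposed to compounds at various concentrations for 72 h. Viability by MTT (3 h, 37 °C, DMSO-solubilized, 600 nm) as percent of untreated cells; three independent experiments, IC50 by Chou–Talalay method.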
(Tetrazolium dyes change colour on reduction, which living cells bring about.)

Test [2] deals with U87 shCTRL cells. The test is described as follows: MTT cell viability assay, U87 shCTRL (expressing Tau). It is filed as cell-based, human. The conditions noted are these: for IC50: Homo sapiens, U87 shCTRL, 72 h, MTT, mean ± SEM, read-out: IC50 (metabolic activity). The protocol: All cell lines were purchased from ATCC, Gaithersburg, MD, USA. Cells from human glioblastoma (clones U87 wt, HTB-14; U118, HTB-15; U251, HTB-12; U138, HTB-16), neuroblastoma (clone SK-N-SH, HTB-11), and colorectal adenocarcinoma (clone Caco-2, HTB-37) were routinely grown at 37 °C in a humidified atmosphere containing 5% CO2. Cells were maintained by regular passages in complete media supplemented with 10% FBS, 2mM of L-glutamine, 100 U/mL of penicillin, and 50 U/mL of streptomycin (Invitrogen, Paris, France). For U87 wt, U251, U138, and SK-N-SH cells, the medium consisted of EMEM (Lonza, Levallois Perret, France). U118 and Caco-2 lines were maintained in DMEM. The U87 wt-derived lines, U87 shCTRL, and U87 shTau2 cells were continuously maintained in complete EMEM medium supplemented with 0.4 µg/mL of puromycin. The shRNA sequences and the protocol of clone selection and Tau downregulation were previously described in [20]. For Tau expression rescue, the U87 shCTRL and U87 shTau cells were seeded two days prior to experiments at 4.10^5 cells per 60 mm dish in 6 mL of complete medium. Cells were transfected using LipofectAmine 2000 according to Invitrogen instructions and 8 µg EGFP-free plasmid constructs (for U87 shCTRL) and EGFP-hTau40 plasmid constructs (for U87 shTau) were used in total. One day prior to experiments, all cells were plated in a 96-well microtiter plate to prepare for viability assays. Cells were free from mycoplasma as determined by mycoalert tests (Lonza).
Cells harvested from sub-confluent monolayers were seeded at 15,000 cells per mL in a 96-well microtiter plate (Cambridge Technology, Labège, France) and cultured for 24 h under standard conditions. Standard medium was then replaced by fresh medium containing no drugs or compounds at different concentrations. The surviving cells were quantified after 72 h by the MTT assay, according to the manufacturer’s instructions. Briefly, 20 µL of 3-(4,5-diMethylThiazol-2-yl)-2,5diphenyl Tetrazolium bromide (MTT) solution at 5 mg.mL^−1 was added to cells for 3 h at 37 °C. The supernatant was discarded and replaced by 100 µL of dimethyl sulfoxide to dissolve formazan crystals. The absorbance was then read at 600 nm by spectrophotometry. For all concentrations of a given compound, cell viability was expressed as the percentage of the ratio between the mean absorbance of treated cells and the mean absorbance of untreated cells. Three independent experiments were performed, and the data were expressed as percentage of survival (using the untreated cells as 100%) and subjected to statistical analysis (n = 3). The IC50 was calculated using the Chou and Talalay method.

Test [3] concerns U87 shCTRL cells. The test is described as follows: Mitotic index by high-content imaging, U87 shCTRL. The test is classed as cell-based, human. Conditions: 48 h, 5-times IC50 of compounds. As to the method: (§1) For scoring mitotic indexes, an automated high-content screening confocal microscopy approach was employed to identify cells undergoing mitosis from a large population of cells. For this, cells nuclei were stained with DAPI. Briefly, fibronectin-coated clear-glass-bottom black 96-well imaging plates were seeded with 100 µL of cell suspension (60,000 cell.mL^−1) in each well, with both U87 shCTRL and U87 ShTau cell lines. Cells were treated with 5-times IC50 of compounds for 48 h, then they were fixated inside the palates with 4% formaldehyde (in PBS pH 7.4) for 20 min at room temperature, permeabilized with PBS-Triton X-100 0.5% for 10 min at room temperature. DNA was then stained with DAPI (10 µg.mL^−1) for 5 min at room temperature and in the darkness. After being washed, cells were kept in PBS at 4 °C and imaged while in PBS. Automated confocal microscopy was carried out using an Opera Phenix (PerkinElmer) high-content screening microscope using a 20× Air/0.4 NA air objective. For each condition, 6 wells were prepared and a total of 61 fields were acquired for each well. Image analysis was performed using Harmony high-content analysis v4.8 software and PhenoLOGIC Machine Learning technology, which uses a learn-by-example approach. As a first step, nuclei were segmented and multiple parameters for these nuclei were calculated using Harmony v4.8 software building blocks. After training, PhenoLOGIC Machine Learning then selects the best parameters to detect nuclei undergoing the M phase of mitosis. From this, the mitotic index of each condition was calculated by dividing the number of cells undergoing mitosis over the total number of cells.

Test [4] deals with U87 shTau cells. The test is described as follows: Mitotic index by high-content imaging, U87 shTau. The conditions noted are these: 48 h, 5-times IC50 of compounds. The test is classed as cell-based, human. As to the method:
as §1

Test [5] concerns the target T1, Tau-induced microtubule assembly (tubulin) (Homo sapiens, UniProt P10636).
T1 construct: The full-length human Tau (hTau40) was expressed in a transformed E. coli BL21 (DE3) strain; made in house; host or cells: Tau: E. coli BL21 (DE3); tubulin: purified from lamb brain tissue
Description: Turbidimetry of in vitro Tau-induced microtubule assembly. The test is classed as biochemical, lamb. Conditions: 10 µM tubulin, 5 µM Tau, 2.5–50 µM compound, 37 °C. As to the method: The polymerization of tubulin was monitored by measuring the apparent absorbance at 350 nm using a Beckman DU 7400 spectrophotometer at 37 °C. Tubulin at a final concentration of 10 µM was mixed with compounds at the indicated concentration and immediately placed into the spectrometer chamber. When the signal was stable, Tau at a final concentration of 5 µM was added to induce microtubule formation. Measurements were continued until turbidity values reached a plateau.

T1 sequence (P10636 2-441 isoform P10636-8): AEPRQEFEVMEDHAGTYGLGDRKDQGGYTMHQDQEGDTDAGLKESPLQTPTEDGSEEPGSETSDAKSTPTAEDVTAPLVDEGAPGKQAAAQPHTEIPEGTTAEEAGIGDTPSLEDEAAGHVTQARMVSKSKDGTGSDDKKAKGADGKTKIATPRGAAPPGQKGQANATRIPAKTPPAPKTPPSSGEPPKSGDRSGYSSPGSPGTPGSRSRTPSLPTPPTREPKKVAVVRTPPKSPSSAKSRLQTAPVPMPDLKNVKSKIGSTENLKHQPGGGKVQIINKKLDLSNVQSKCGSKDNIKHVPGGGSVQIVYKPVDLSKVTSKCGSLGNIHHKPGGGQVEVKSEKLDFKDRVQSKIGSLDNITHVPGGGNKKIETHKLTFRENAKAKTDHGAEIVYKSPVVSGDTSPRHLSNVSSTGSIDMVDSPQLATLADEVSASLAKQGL

In general, IC50 refers to the point on the concentration scale where inhibition reaches its midpoint. As for `Nc1nc2ccc3oc(-c4cccc(Oc5ccccc5)c4)cc(=O)c3c2s1` [Compound 2, 2-amino-7-(3-phenoxyphenyl)-9H-chromeno [6,5-d]thiazol-9-one], the IC50 in test [1] is 2800 ± 2400 nM; in test [2], 1400 ± 500 nM. Also, the “activity against U87 shCTRL cells compared to U87 shTau cells” value in test [2] (ratio of IC50 values) came to 3 times. For the same compound, the mitotic index entry in test [3] and in test [4] was “no significant variation of mitotic indexes” throughout. The “effect on turbidity time course of Tau-induced microtubule assembly” value in test [5] is “no effect on the turbidity time course”.
Consider `Nc1nc2ccc3oc(C(=O)O)cc(=O)c3c2s1` [Compound 5], for which the IC50 in test [1] and in test [2] was over 100000 nM throughout. Further, the mitotic index in test [3] is 2.47 ± 0.19%; in test [4] it was 3 ± 0.39%. In test [5], the “effect on turbidity time course of Tau-induced microtubule assembly” value is given as “no effect on the turbidity time course”.
